Measured values published in patent US20220324862A1, “PYRIDOPYRIMIDINONE COMPOUNDS” (Acerand Therapeutics (USA) Limited, priority 2021, published 2022).
pIC50: −log10 of the molar value.

What was measured:
NCI-H1975 cells = experiment: 3D cell proliferation assay; format: cell-based; settings: Homo sapiens, ultra low attachment plate, 96 hours, 3D CTG
Experimental: This assay supports the molecular mode of action of compounds. Low IC50 values are indicative of high potency of the SOS1 inhibition. […] This supports the molecular mode of action of the SOS1 inhibitors as selectively targeting cancer cells dependent on receptor tyrosine kinase-RAS/SOS1-family protein function. Cell proliferation assays were performed in three-dimensional (3D) anchorage-independent conditions in 96 well ultra-low attachment plate with the following human cell lines:
NCI-H1975: human non-small cell lung cancer (NSCLC) with wild type KRAS and EGFR L858R/T790M mutation;
Cell lines were purchased from the American Type Culture Collection (ATCC), NCI, or European Collection of Authenticated Cell Cultures (ECACC). All cell lines were maintained in RPMI-1640 or DMEM with 10% heat inactivated fetal bovine serum.
Cells growing in log phase were detached with Gibco™ TrypLE™ Express Enzyme and plated in 96 well ultra low attachment plate at 15000 to 20000 cells/well in 100 μl of media. After overnight incubation at 37° C. and 5% CO2, the cells were treated with compounds (50 μL/well) at the final concentrations spanning 1 nM to 20 μM. Cells were incubated at 37° C., 5% CO2 and 95% humidity incubator for 96 hours. At the end of incubation, a 3D CTG reagent from Promega was added to each well according to vendors recommendation and mixed for 10 minutes in dark. The luminescence signals were determined using Biotek plate reader. The data was fitted using a sigmoidal curve analysis program (GraphPAD Prism) with variable hill slope.

[1] = test system: cellular pERK in NCI-H1975 cells (EGFR/L858R-T790M); experiment: pERK Potency Assay; format: cell-based; settings: Homo sapiens, 1 hour incubation, Western blot, read-out: IC50 value, cellular pERK level
Source text: The purpose of this assay is to measure the ability of test compounds to inhibit SOS1 function in cells. SOS1 activates RAS proteins by catalyzing the conversion of RAS-GDP to RAS-GTP in response to receptor tyrosine kinase activation. Activation of RAS induces a sequence of cellular signaling events that results in increased phosphorylation of ERK at Threonine 202 and Tyrosine 204 (pERK). The procedure described below measured the level of cellular pERK in response to test compounds in NCI-H1975 cells (EGFR/L858R-T790M).
NCI-H1975 cells were grown and maintained using media and procedures recommended by the ATCC. On the day prior to compound addition, cells were plated in 24-well cell culture plates (0.9 ml/well) and grown overnight in a 37° C., 5% CO2 incubator. Test compounds were prepared with 3-fold serial dilutions in DMSO, with a top concentration of 10 mM. On the day of the assay, 100 uL of each test compound diluted at 1:100 in media was added to each well of cell culture plate with final concentrations of the compound spanning 0.5 nM to 10 uM. After the compound was added, the cells were incubated for 1 hour at 37° C., 5% CO2. Following incubation, culture medium was removed, and the cells were washed once with phosphate buffered saline and lysed with lysis buffer (20 mM Tris-HCl, pH 7.5, 150 mM NaCl, 1 mM EDTA, 1 mM EGTA, 0.8% NP-40 plus 2× protease and phosphatase inhibitors). Cellular pERK level was determined using the Western blot analysis and quantified with Liqor software. Signal from Western blot was plotted and IC50 values were determined by fitting a 4-parameter sigmoidal concentration response model.

[2] = target: T1, protein-protein interaction between SOS1 and KRAS-G12D (Homo sapiens, UniProt Q07889); experiment: HTRF Based Protein-Protein Interaction Assay; format: binding
T1 construct: The purified GST-SOS1 catalytic domain (residues 564-1049) was first diluted in assay buffer; made in house; host or cells: E. coli BL21 (DE3) for SOS1; E. coli BL21 carrying a BirA plasmid for KRAS-G12D
T1 sequence (Q07889 564-1049): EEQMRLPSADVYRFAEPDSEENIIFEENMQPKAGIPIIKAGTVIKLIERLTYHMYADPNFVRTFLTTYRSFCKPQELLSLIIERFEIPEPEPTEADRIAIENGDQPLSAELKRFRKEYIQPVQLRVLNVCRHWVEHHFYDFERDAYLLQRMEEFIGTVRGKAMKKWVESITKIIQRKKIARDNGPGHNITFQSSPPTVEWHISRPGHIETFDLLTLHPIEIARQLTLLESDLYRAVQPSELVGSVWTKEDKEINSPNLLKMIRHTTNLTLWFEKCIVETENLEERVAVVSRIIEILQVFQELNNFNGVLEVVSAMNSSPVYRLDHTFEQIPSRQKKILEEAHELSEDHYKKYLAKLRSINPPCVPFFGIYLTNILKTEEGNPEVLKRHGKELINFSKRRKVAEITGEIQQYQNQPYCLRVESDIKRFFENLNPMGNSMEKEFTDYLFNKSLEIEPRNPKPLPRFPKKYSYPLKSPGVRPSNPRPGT
In short: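 GST-SOS1 (residues 564-1049, 2.5 nM) preincubated 15 min at 25° C with compound (0.5 nM-10 μM, 3-fold), then biotinylated avi-KRAS-G12D (1-169, 100 nM) with 10 uM GDP added for 60 min. HTRF read after 5 h with anti-GST-Tb cryptate/streptavidin-XL665; buffer HEPES pH 7.5, Brij-35, TCEP, BSA.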

| Compound | pIC50 (NCI-H1975 cells) | pIC50 [1] | pIC50 [2] |
| --- | --- | --- | --- |
| C#C[C@@H](Nc1nc(C)nc2cc(=O)n(C3(C)CCN(C(C)=O)CC3)cc12)c1cccc(C(F)(F)F)c1C [Compound 33, (R)-6-(1-acetyl-4-methylpiperidin-4-yl)-2-methyl-4-((1-(2-methyl-3-(trifluoromethyl)phenyl)prop-2-yn-1-yl)amino)pyrido[4,3-d]pyrimidin-7(6H)-one] | > 7.00 | > 7.00 |  |
| C#C[C@@H](Nc1ncnc2c1cc(C1=CC3CCC(C1)N3C(C)=O)c(=O)n2C)c1cccc(C(F)F)c1F (stereo partly shown) [Compound 65] |  | > 7.00 | > 7.00 |
